Biological target: T1, hSMVT (Homo sapiens, UniProt Q9Y289)
T1 sequence (Q9Y289 1-635): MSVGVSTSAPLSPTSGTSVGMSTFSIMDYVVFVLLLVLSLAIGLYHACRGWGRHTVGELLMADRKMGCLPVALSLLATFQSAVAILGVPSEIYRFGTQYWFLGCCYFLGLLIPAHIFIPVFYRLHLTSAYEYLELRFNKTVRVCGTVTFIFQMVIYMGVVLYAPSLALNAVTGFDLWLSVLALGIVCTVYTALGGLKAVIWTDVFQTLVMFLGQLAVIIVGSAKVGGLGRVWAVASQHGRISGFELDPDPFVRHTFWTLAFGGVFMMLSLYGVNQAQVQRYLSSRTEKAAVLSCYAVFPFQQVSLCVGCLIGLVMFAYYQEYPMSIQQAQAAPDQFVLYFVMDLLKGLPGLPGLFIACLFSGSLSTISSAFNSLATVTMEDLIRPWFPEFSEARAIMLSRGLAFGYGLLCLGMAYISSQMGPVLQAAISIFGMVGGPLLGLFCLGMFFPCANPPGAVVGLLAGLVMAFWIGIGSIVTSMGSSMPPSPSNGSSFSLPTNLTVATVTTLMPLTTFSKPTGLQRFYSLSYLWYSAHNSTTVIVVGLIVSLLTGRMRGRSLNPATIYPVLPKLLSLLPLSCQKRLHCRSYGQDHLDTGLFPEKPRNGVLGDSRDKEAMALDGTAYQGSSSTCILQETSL
Assay: Transport currents in SMVT-expressing Xenopus oocytes, normalized to biotin
Assay type: cell-based
Settings: response relative to biotin, transporter-expressing oocytes, test compound 0.5 mM
Description: The complete open reading frame of human ATBO+(SLC6A14) and SMVT (SLC5A6) were amplified from human cDNA prepared from liver or intestine mRNA. Gene-specific oligonucleotide primers were designed against Genbank sequences (AF151978 and NM-021095). Amplified PCR products were cloned into a modified version of the mammalian expression vector pcDNA3 (termed pMO) that was engineered to contain the 5′ and 3′ untranslated regions from the Xenopus beta-globin gene. All clones were completely sequenced and tested for function by transient transfection in HEK293 cells.
cRNA for oocyte expression was prepared by linearization of plasmid cDNA and in vitro transcription using T7 polymerase (Epicentre Ampliscribe kit). Xenopus oocytes were prepared and maintained as previously described (Collins et al., PNAS […]:5456-5460 (1997)) and injected with 10-30 ng RNA. Transport currents were measured 2-6 days later using two-electrode voltage-clamp (Axon Instruments). All experiments were performed using a modified oocyte Ringers solution (90 mM NaCl, 2 mM KCl, 1.8 mM CaCl2, 1 mM MgCl2, and 10 mM Na HEPES, pH 7.4; in Na^+-free solutions 90 mM choline chloride was substituted for NaCl). The membrane potential of oocytes was held at −60 mV and current traces acquired using PowerLab software (AD Instruments). Full 7-concentration dose-responses were performed for each compound. […] Half-maximal concentrations were calculated using non-linear regression curve fitting software (Prism) with the Hill co-efficient fixed to 1. To ensure that currents were specific for the over-expressed transporter, all compounds were tested against uninjected oocytes. Since both ATBO+ and SMVT require Na^+ for transport, we confirmed transport specificity by application of the compounds in a Na^+-free solution.
In vitro transport data for selected compounds on hSMVT-expressing cells

SMILES: CC(C)(N)C(=O)NCC1(CC(=O)O)CCCCC1 [Compound V, a-aminoisobutyryl gabapentin]
- % Max. (Biotin): 36%
